Measurements from BindingDB's records for doi:10.1016/j.bmcl.2004.08.009 (Deltagen Research Laboratories, 2004).

Legend:
[1] = Inhibition of MCP-1 induced chemotaxis in THP-1 cells
[2] = target: C-C chemokine receptor type 2 (Homo sapiens, UniProt P41597); experiment: Inhibition of MCP-1 induced chemotaxis in THP-1 cells
Chain of C-C chemokine receptor type 2 (P41597 whole entry): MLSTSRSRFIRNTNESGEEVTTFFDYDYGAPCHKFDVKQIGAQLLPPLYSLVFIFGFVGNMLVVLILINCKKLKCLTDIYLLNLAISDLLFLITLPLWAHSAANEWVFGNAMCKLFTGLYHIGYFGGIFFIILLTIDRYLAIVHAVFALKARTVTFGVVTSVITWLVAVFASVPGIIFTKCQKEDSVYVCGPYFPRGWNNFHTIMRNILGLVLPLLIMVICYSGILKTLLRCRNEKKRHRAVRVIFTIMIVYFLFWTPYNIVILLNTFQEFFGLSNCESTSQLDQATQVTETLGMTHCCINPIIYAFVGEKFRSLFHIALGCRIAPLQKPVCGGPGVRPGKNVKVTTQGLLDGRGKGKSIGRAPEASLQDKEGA

EC50 [1]	EC50 [2]	SMILES
0.04 µM	–	O=C(CNC(=O)c1cccc(C(F)(F)F)c1)NCC1CCN(Cc2ccc(Cl)cc2)CC1 [N-({[1-(4-Chloro-benzyl)-piperidin-4-ylmethyl]-carbamoyl}-methyl)-3-trifluoromethyl-benzamide]
–	0.81 µM	O=C(CNC(=O)c1cccc(C(F)(F)F)c1)NC[C@H]1CCCN1Cc1ccc(Cl)cc1
0.61 µM	–	O=C(CNC(=O)c1cccc(C(F)(F)F)c1)NC1CCCN(Cc2ccc(Cl)cc2)C1 (stereo not given) [N-{[1-(4-Chloro-benzyl)-piperidin-3-ylcarbamoyl]-methyl}-3-trifluoromethyl-benzamide]
0.02 µM	–	O=C(CNC(=O)c1cccc(C(F)(F)F)c1)N[C@@H]1CCN(Cc2ccc(Cl)cc2)C1 [(R)-N-(2-(1-(4-chlorobenzyl)pyrrolidin-3-ylamino)-2-oxoethyl)-3-(trifluoromethyl)benzamide]
0.36 µM	–	O=C(CNC(=O)c1cccc(C(F)(F)F)c1)N[C@H]1CCN(Cc2ccc(Cl)cc2)C1
